Common to all, as to type: cell-based
The test system of assay [1] is TEAD1. Nature of the assay: MCF-7 TEAD1-luciferase reporter assay (MCF7-TEAD-Luc). The settings on record: MCF7 cells, overnight; for IC50: Homo sapiens; for TEAD1-Luc MCF7: Max Inhibition: % of DMSO-treated control. The essentials:
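MCF7 cells with a TEAD luciferase reporter were seeded at 10,000 per well, grown 24 hours at 37° C, then treated overnight with serially diluted compound. Luciferase signal was normalized as % inhibition relative to DMSO controls, and IC50 came from a four-parameter fit.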

The subject of assay [2] is NCI-H226 cells. Nature of the assay: Cell proliferation and viability assay (CPA) in NCI-H226 cells. The settings on record: up to 6 d; for IC50: Homo sapiens, 144 h, read-out: CPA NCI-H226 IC50 Ave. The procedure:
Compound potency and efficacy in inhibiting cell proliferation and viability was assessed in multiple cell lines. For example, NCI-H226 cells (ATCC #CRL-5826) were seeded at 2000 cells in 200 μL medium per well of a 96-well plate (Corning #3610) and incubated at 37° C. for 24 hours, then treated with serial diluted compounds for up to 6 d. Viable cells were measured by CellTiter-Glo 2.0 Cell Viability Assay (Promega #G9243), and the luminescence signal was read using an EnSight Multimode plate reader (PerkinElmer, model 9MLDHH34000000, integration time 100 ms) with Kaleido 3.0. software. For data analysis, dose-dependent curves were plotted as “inhibition” (% of DMSO-treated control wells), and were fitted by four-parametric model in GraphPad Prism to obtain IC50 values. […]

Assay [3] deals with H2052 cells. Nature of the assay: Cell proliferation and viability assay (CPA) in H2052 cells. The note with it: for IC50: Homo sapiens, NCI-H2052, read-out: CPA H2052 IC50 Ave. The protocol:
(§1) Compound potency and efficacy in inhibiting cell proliferation and viability was assessed in multiple cell lines. For example, NCI-H226 cells (ATCC #CRL-5826) were seeded at 2000 cells in 200 μL medium per well of a 96-well plate (Corning #3610) and incubated at 37° C. for 24 hours, then treated with serial diluted compounds for up to 6 d. Viable cells were measured by CellTiter-Glo 2.0 Cell Viability Assay (Promega #G9243), and the luminescence signal was read using an EnSight Multimode plate reader (PerkinElmer, model 9MLDHH34000000, integration time 100 ms) with Kaleido 3.0. software. For data analysis, dose-dependent curves were plotted as “inhibition” (% of DMSO-treated control wells), and were fitted by four-parametric model in GraphPad Prism to obtain IC50 values.
(§2) Alternatively, cells were plated at 2000 cells in 200 μL medium per well of a 96-well plate (Corning #3585) overnight, treated with compound for 7 days, cell density images taken by Incycte S3 live cell analysis instrument (Sartorius) every 24 hours at the same time. Images were analyzed by Incucyte's AI-driven software to get C “% confluence” for every image. Dose-dependent curves were plotted as “% inhibition” (% o of DMSO-treated control wells) and were fitted by four-parametric model in GraphPad Prism to obtain IC50 values.

Assay [4] relates to TEAD1. Nature of the assay: Palmitoylation assay, TEAD1 (HEK293T cells). The note with it: 3 um compound, 24 hours. The procedure:
(§3) Tagged TEAD constructs were cloned in pTriEx-6 (Novagen #71559) and transiently transfected into HEK293T cells for 24 hours. Then cells were treated with compounds for 24 hours, or treated with compounds plus 25 μM alkyne palmitic acid (for palmitoylation assay), and cell pellets were collected. Cells were lysed in lysis Buffer (100 mM Tris-HCl, 150 mM NaCl, 1% Triton, 5 mg/mL protease inhibitor cocktail), centrifuged for 10 min at 15000 g, TEAD proteins were pulled down and subjected to click-chemistry with TAMRA azide (Click Chemistry Tools #AZ109) to label compound-modified protein. Protein bands were separated by SDS-gel electrophoresis, target bands at expected molecular size were visualized using BioRad ChemiDoc Imaging system, band intensities were quantified by Image Studio.

Assay [5] concerns the target TEAD2 (Homo sapiens, UniProt Q15562). In words: Palmitoylation assay, TEAD2 (HEK293T cells). The settings on record: 3 um compound, 24 hours. More on the design: unspecified tag; expressed in transfected cells; host or cells: HEK293T. The protocol:
as §3

The target in assay [6] is TEAD3 (Homo sapiens, UniProt Q99594). In words: Palmitoylation assay, TEAD3 (HEK293T cells). Also on record: unspecified tag; expressed in transfected cells; host or cells: HEK293T. The settings on record: 3 um compound, 24 hours. The protocol: as §3
Sequence of TEAD3 (Q99594 whole entry): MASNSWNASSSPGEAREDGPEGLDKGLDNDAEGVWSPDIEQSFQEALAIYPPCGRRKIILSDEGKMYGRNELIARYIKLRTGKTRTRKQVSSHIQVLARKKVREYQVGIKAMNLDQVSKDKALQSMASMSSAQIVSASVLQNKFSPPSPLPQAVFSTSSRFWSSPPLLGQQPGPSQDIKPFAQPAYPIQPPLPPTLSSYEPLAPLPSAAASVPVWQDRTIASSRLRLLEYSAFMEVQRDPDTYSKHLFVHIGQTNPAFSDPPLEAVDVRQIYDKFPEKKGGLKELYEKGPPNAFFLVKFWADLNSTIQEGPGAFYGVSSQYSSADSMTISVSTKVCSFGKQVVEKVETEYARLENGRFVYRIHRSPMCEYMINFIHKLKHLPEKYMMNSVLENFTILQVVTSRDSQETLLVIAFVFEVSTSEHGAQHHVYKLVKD
Assay [7] concerns the target TEAD4 (Homo sapiens, UniProt Q15561). In words: Palmitoylation assay, TEAD4 (HEK293T cells). More on the design: unspecified tag; expressed in transfected cells; host or cells: HEK293T. The note with it: 3 um compound, 24 hours. The protocol:
as §3

Assay [8] deals with NCI-H226 cells. Nature of the assay: Cell proliferation and viability assay (CPA) in NCI-H226 cells. The settings on record: up to 6 d. The protocol: as §1, §2

SMILES strings stand for the structures. Read-outs that look alike come from different tables or passages of the source. A value given as a limit tells only on which side of the number the result lay.

Sequence of TEAD4 (Q15561 whole entry): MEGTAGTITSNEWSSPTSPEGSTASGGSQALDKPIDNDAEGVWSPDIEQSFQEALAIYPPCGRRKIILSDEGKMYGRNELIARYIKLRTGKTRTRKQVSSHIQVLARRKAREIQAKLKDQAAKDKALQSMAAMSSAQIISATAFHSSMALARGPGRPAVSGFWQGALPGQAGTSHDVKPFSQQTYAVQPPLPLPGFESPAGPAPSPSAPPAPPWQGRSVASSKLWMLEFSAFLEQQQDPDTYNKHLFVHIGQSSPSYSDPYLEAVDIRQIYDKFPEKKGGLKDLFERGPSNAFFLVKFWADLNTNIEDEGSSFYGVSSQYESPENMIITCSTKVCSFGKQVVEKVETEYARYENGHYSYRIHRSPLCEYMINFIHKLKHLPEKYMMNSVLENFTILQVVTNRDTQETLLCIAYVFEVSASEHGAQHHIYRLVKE
Sequence of TEAD2 (Q15562 whole entry): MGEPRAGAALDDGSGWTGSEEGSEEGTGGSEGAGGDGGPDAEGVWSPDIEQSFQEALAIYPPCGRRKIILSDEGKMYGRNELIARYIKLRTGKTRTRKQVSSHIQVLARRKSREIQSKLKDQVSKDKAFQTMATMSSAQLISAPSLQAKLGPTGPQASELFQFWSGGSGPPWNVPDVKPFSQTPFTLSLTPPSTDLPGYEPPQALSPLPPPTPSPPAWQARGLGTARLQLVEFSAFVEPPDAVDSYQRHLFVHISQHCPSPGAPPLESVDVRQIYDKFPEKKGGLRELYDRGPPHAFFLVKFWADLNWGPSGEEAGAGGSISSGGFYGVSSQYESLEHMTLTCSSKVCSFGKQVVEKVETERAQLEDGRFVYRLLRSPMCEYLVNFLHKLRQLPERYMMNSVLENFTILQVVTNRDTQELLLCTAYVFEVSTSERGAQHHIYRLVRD

Take `C=CC(=O)N1CC[C@](C)(C#Cc2ccc(C(F)(F)F)cc2)C1` (single isomer, unassigned) [Example 60, 1-[(3R*)-3-methyl-3-{2-[4-(trifluoromethyl)phenyl]ethynyl}pyrrolidin-1-yl]prop-2-en-1-one]: in assay [1], the IC50 lay within 10 to 100 nM and the “TEAD1-Luc MCF7: Max Inhibition” value is “A (A ≥ 75%)”. For the same molecule, in assay [2], the IC50 was ≤ 100 nM and the “CPA NCI-H226 Max Inh Ave” value is “A (A ≥ 75%)”. In addition, in assay [3], the “CPA H2052 Max Inh Ave” value is given as “A (A ≥ 75%)” and the concentration for half-maximal inhibition (IC50) was ≤ 100 nM.

`C=CC(=O)N1CC[C@@](C)(C#Cc2ccc(C(F)(F)F)cc2)C1` (single isomer, unassigned) [Example 61, 1-[(3S*)-3-methyl-3-{2-[4-(trifluoromethyl)phenyl]ethynyl}pyrrolidin-1-yl]prop-2-en-1-one]: in assay [1], the 50% inhibitory concentration (IC50) fell in the range of 10 to 100 nM and the “TEAD1-Luc MCF7: Max Inhibition” value is listed as “A (A ≥ 75%)”. Further, in assay [2], the IC50 is ≤ 100 nM and the “CPA NCI-H226 Max Inh Ave” value is “B (75% > B ≥ 50%)”. For the same molecule, in assay [3], the “CPA H2052 Max Inh Ave” value is “A (A ≥ 75%)” and the IC50 was ≤ 100 nM.

Consider `C=CC(=O)N1CC[C@@H](C#Cc2ccc(C(F)(F)F)cc2)C1` (single isomer, unassigned) [Example 67, (S*)-1-(3-((4-(trifluoromethyl)phenyl)ethynyl)pyrrolidin-1-yl)prop-2-en-1-one], for which, in assay [1], the half-inhibitory concentration (IC50) is ≤ 10 nM and the “TEAD1-Luc MCF7: Max Inhibition” value is “A (A ≥ 75%)”. Further, in assay [2], the half-maximal inhibitory concentration (IC50) was ≤ 100 nM and the “CPA NCI-H226 Max Inh Ave” value is on record as “A (A ≥ 75%)”. In assay [3], the “CPA H2052 Max Inh Ave” value was “A (A ≥ 75%)” and the 50% inhibitory concentration (IC50) was ≤ 100 nM.

On to `C=CC(=O)N1C[C@@H](C)[C@H](/C=C/c2ccc(C(F)(F)F)cc2)C1` (stereo in doubt) [Example 39, 1-((3S*,4S*)-3-methyl-4-((E)-4-(trifluoromethyl)styryl)pyrrolidin-1-yl)prop-2-en-1-one], for which, in assay [1], the IC50 lay in the range of 10 to 100 nM and the “TEAD1-Luc MCF7: Max Inhibition” value is “A (A ≥ 75%)”. Further, in assay [4], the “TEAD1 Inh (palmitoylation)” value is listed as 89%. Further, the “TEAD2 Inh (palmitoylation)” value in assay [5] amounted to 32%. Also, in assay [6], the “TEAD3 Inh (palmitoylation)” value is on record as 90%. For the same molecule, in assay [7], the “TEAD4 Inh (palmitoylation)” value stood at 18%.

With `C=CC(=O)N1CC(C/C=C\c2cc(C(F)(F)F)on2)C1` [Example 1, 1-{3-[(2Z)-3-[5-(trifluoromethyl)-1,2-oxazol-3-yl]prop-2-en-1-yl]azetidin-1-yl}prop-2-en-1-one], in assay [1], the 50% inhibitory concentration (IC50) was ≤ 10 nM and the “TEAD1-Luc MCF7: Max Inhibition” value is reported as “A (A ≥ 75%)”. In assay [2], the IC50 is 100 to 500 nM and the “CPA NCI-H226 Max Inh Ave” value is “B (75% > B ≥ 50%)”. Further, in assay [3], the “CPA H2052 Max Inh Ave” value is reported as “B (75% > B ≥ 50%)” and the IC50 is ≤ 100 nM.

As for `C=CC(=O)N1CC(/C=C/c2ccc(C(F)(F)F)cn2)C1` [Example 11, 1-(3-(2-(5-(trifluoromethyl)pyridin-2-yl)vinyl)azetidin-1-yl)prop-2-en-1-one], in assay [1], the IC50 was ≤ 10 nM and the “TEAD1-Luc MCF7: Max Inhibition” value is recorded as “A (A ≥ 75%)”. Also, in assay [2], the IC50 was in the range of 100 to 500 nM and the “CPA NCI-H226 Max Inh Ave” value is “A (A ≥ 75%)”. In addition, in assay [3], the “CPA H2052 Max Inh Ave” value is reported as “A (A ≥ 75%)” and the half-inhibitory concentration (IC50) is ≤ 100 nM.

Take `C=CC(=O)N1CC(/C=C/c2cnc(C(F)(F)F)s2)C1` [Example 13, 1-{3-[(E)-2-[2-(trifluoromethyl)-1,3-thiazol-5-yl]ethenyl]azetidin-1-yl}prop-2-en-1-one]: in assay [1], the half-inhibitory concentration (IC50) was ≤ 10 nM and the “TEAD1-Luc MCF7: Max Inhibition” value is on record as “A (A ≥ 75%)”. For the same molecule, in assay [2], the IC50 is ≤ 100 nM and the “CPA NCI-H226 Max Inh Ave” value is recorded as “B (75% > B ≥ 50%)”. Besides, in assay [3], the “CPA H2052 Max Inh Ave” value is “B (75% > B ≥ 50%)” and the IC50 was ≤ 100 nM.

As for `C=CC(=O)N1CC(/C=C/c2cc(C(F)(F)F)on2)C1` [Example 21, (E)-1-(3-(2-(5-(trifluoromethyl)isoxazol-3-yl)vinyl)azetidin-1-yl)prop-2-en-1-one], in assay [1], the concentration for half-maximal inhibition (IC50) was ≤ 10 nM and the “TEAD1-Luc MCF7: Max Inhibition” value was “A (A ≥ 75%)”. In assay [2], the IC50 was in the range of 100 to 500 nM and the “CPA NCI-H226 Max Inh Ave” value is on record as “A (A ≥ 75%)”. In addition, in assay [3], the “CPA H2052 Max Inh Ave” value is listed as “B (75% > B ≥ 50%)” and the half-maximal inhibitory concentration (IC50) is ≤ 100 nM. Moreover, the “TEAD1 Inh (palmitoylation)” value in assay [4] amounted to 96%. The “TEAD2 Inh (palmitoylation)” value in assay [5] is recorded as 70%. For the same molecule, the “TEAD3 Inh (palmitoylation)” value in assay [6] came out at 96%. The “TEAD4 Inh (palmitoylation)” value in assay [7] is listed as 33%.

Regarding `C=CC(=O)N1CC(C#N)(/C=C/c2cc(C(F)(F)F)on2)C1` [Example 34, 1-acryloyl-3-(2-(5-(trifluoromethyl)isoxazol-3-yl)vinyl)azetidine-3-carbonitrile], in assay [1], the IC50 was 10 to 100 nM and the “TEAD1-Luc MCF7: Max Inhibition” value is on record as “A (A ≥ 75%)”. In addition, in assay [2], the IC50 lay within 100 to 500 nM and the “CPA NCI-H226 Max Inh Ave” value was “A (A ≥ 75%)”. Besides, in assay [3], the “CPA H2052 Max Inh Ave” value was “A (A ≥ 75%)” and the IC50 was ≤ 100 nM.

For the molecule `C=CC(=O)N1CC(/C=C/c2ccc(C(F)(F)F)cc2)C(OC)C1` (stereo not shown) [Example 36, 1-(3-methoxy-4-(4-(trifluoromethyl)styryl)pyrrolidin-1-yl)prop-2-en-1-one], in assay [1], the IC50 lay in the range of 10 to 100 nM and the “TEAD1-Luc MCF7: Max Inhibition” value is on record as “A (A ≥ 75%)”. In addition, in assay [2], the IC50 was 100 to 500 nM and the “CPA NCI-H226 Max Inh Ave” value was “B (75% > B ≥ 50%)”. In assay [3], the “CPA H2052 Max Inh Ave” value is on record as “B (75% > B ≥ 50%)” and the half-maximal inhibitory concentration (IC50) is ≤ 100 nM.

For the molecule `C#Cc1cc(/C=C/C2CN(C(=O)C=C)C2)ccc1C(F)(F)F` [Example 45, (E)-1-(3-(3-ethynyl-4-(trifluoromethyl)styryl)azetidin-1-yl)prop-2-en-1-one], in assay [1], the IC50 is 10 to 100 nM and the “TEAD1-Luc MCF7: Max Inhibition” value is listed as “A (A ≥ 75%)”. Moreover, in assay [2], the IC50 was 100 to 500 nM and the “CPA NCI-H226 Max Inh Ave” value is listed as “B (75% > B ≥ 50%)”. In addition, in assay [3], the “CPA H2052 Max Inh Ave” value is “B (75% > B ≥ 50%)” and the concentration for half-maximal inhibition (IC50) lay in the range of 100 to 500 nM.

For `C=CC(=O)N1CC[C@H](C/C=C/c2ccc(C(F)(F)F)cc2)C1` [Example 85], in assay [1], the IC50 is ≤ 10 nM and the “TEAD1-Luc MCF7: Max Inhibition” value is reported as “A (A ≥ 75%)”. Also, in assay [3], the “CPA H2052 Max Inh Ave” value was “B (75% > B ≥ 50%)” and the IC50 was ≤ 100 nM. Besides, the half-maximal inhibitory concentration (IC50) in assay [8] (Homo sapiens, 144 h, read-out: CPA NCI-H226 IC50 Ave) fell in the range of 100 to 500 nM. Besides, the “CPA NCI-H226 Max Inh Ave” value in assay [8] is recorded as “B (75% > B ≥ 50%)”.

Source of the values: patent publication US20260347319A1, “YAP/TAZ-TEAD ONCOPROTEINS INHIBITORS” (BridGene Biosciences, Inc., priority 2022, published 2026).
